Assay results taken from PubChem BioAssay (NCI).
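Test compounds were applied to cells in 96-well plates for 48 hours at 5 doses. The concentration for 50% growth inhibition is given as GI50. TGI: concentration producing complete growth inhibition.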

Experiments:
Test in all cases: DTP human tumour cell line panel, 48 h
HCT-116 colon = system: HCT-116 colon
M14 melanoma = system: M14 melanoma
MDA-MB-435 = system: MDA-MB-435
MALME-3M melanoma = system: MALME-3M melanoma
KM12 colon = system: KM12 colon
HOP-92 NSCLC = system: HOP-92 NSCLC
SK-OV-3 ovarian = system: SK-OV-3 ovarian
SF-539 CNS = system: SF-539 CNS
HOP-62 NSCLC = system: HOP-62 NSCLC
HL-60(TB) leukemia = system: HL-60(TB) leukemia
NCI-H226 lung = system: NCI-H226 lung
EKVX NSCLC = system: EKVX NSCLC
MDA-MB-468 breast = system: MDA-MB-468 breast
TK-10 renal = system: TK-10 renal
U251 CNS = system: U251 CNS
SK-MEL-2 melanoma = system: SK-MEL-2 melanoma
SW-620 colon = system: SW-620 colon
SNB-75 CNS = system: SNB-75 CNS
T-47D breast = system: T-47D breast
COLO 205 colon = system: COLO 205 colon
ACHN renal = system: ACHN renal
786-0 renal = system: 786-0 renal
A498 renal = system: A498 renal
RPMI-8226 leukemia = system: RPMI-8226 leukemia
SR leukemia = system: SR leukemia
SK-MEL-5 melanoma = system: SK-MEL-5 melanoma
NCI/ADR-RES ovarian = system: NCI/ADR-RES ovarian
SF-295 CNS = system: SF-295 CNS
HCC-2998 colon = system: HCC-2998 colon
UACC-62 melanoma = system: UACC-62 melanoma
K-562 leukemia = system: K-562 leukemia
OVCAR-8 ovarian = system: OVCAR-8 ovarian
IGROV1 ovarian = system: IGROV1 ovarian
SNB-19 CNS = system: SNB-19 CNS
NCI-H460 lung = system: NCI-H460 lung
A549 NSCLC = system: A549 NSCLC
CAKI-1 renal = system: CAKI-1 renal
PC-3 prostate = system: PC-3 prostate
UACC-257 melanoma = system: UACC-257 melanoma
RXF 393 renal = system: RXF 393 renal
OVCAR-3 ovarian = system: OVCAR-3 ovarian
MCF7 breast = system: MCF7 breast
LOX IMVI melanoma = system: LOX IMVI melanoma
OVCAR-5 ovarian = system: OVCAR-5 ovarian
MDA-MB-231 breast = system: MDA-MB-231 breast
SF-268 CNS = system: SF-268 CNS
OVCAR-4 ovarian = system: OVCAR-4 ovarian
HCT-15 colon = system: HCT-15 colon
HS 578T breast = system: HS 578T breast
MOLT-4 leukemia = system: MOLT-4 leukemia
UO-31 renal = system: UO-31 renal
DU-145 prostate = system: DU-145 prostate
HT29 colon = system: HT29 colon
BT-549 breast = system: BT-549 breast
CCRF-CEM leukemia = system: CCRF-CEM leukemia
NCI-H23 lung = system: NCI-H23 lung
SN12C renal = system: SN12C renal
NCI-H522 lung = system: NCI-H522 lung
SK-MEL-28 melanoma = system: SK-MEL-28 melanoma

CC[C@@]12CC(C(=O)OC)=C3Nc4cc5c(cc4[C@@]34CCN(C[C@H]3O[C@H]31)[C@@H]24)[C@@H]1[C@H](O5)[C@@H](O)[C@@]2(CC)CC(C(=O)OC)=C3Nc4cc(O)ccc4[C@@]34CCN1[C@@H]24
GI50 (HCT-116 colon): 199 nM
TGI (HCT-116 colon): 1760 nM
GI50 (M14 melanoma): 239 nM
TGI (M14 melanoma): 19200 nM
GI50 (MDA-MB-435): 191 nM
TGI (MDA-MB-435): 8940 nM
GI50 (MALME-3M melanoma): 201 nM
TGI (MALME-3M melanoma): 2640 nM
GI50 (KM12 colon): 273 nM
TGI (KM12 colon): 4520 nM
GI50 (HOP-92 NSCLC): 127 nM
TGI (HOP-92 NSCLC): 11000 nM
GI50 (SK-OV-3 ovarian): 149 nM
TGI (SK-OV-3 ovarian): 6220 nM
GI50 (SF-539 CNS): 322 nM
TGI (SF-539 CNS): 11600 nM
GI50 (HOP-62 NSCLC): 156 nM
TGI (HOP-62 NSCLC): 7580 nM
GI50 (HL-60(TB) leukemia): 35.1 nM
TGI (HL-60(TB) leukemia): 295 nM
GI50 (NCI-H226 lung): 157 nM
TGI (NCI-H226 lung): 7000 nM
GI50 (EKVX NSCLC): 439 nM
TGI (EKVX NSCLC): 16700 nM
GI50 (MDA-MB-468 breast): 55.3 nM
TGI (MDA-MB-468 breast): 320 nM
GI50 (TK-10 renal): 128 nM
TGI (TK-10 renal): 3310 nM
GI50 (U251 CNS): 317 nM
TGI (U251 CNS): 4770 nM
GI50 (SK-MEL-2 melanoma): 876 nM
TGI (SK-MEL-2 melanoma): 5270 nM
GI50 (SW-620 colon): 530 nM
TGI (SW-620 colon): 5250 nM
GI50 (SNB-75 CNS): 21.8 nM
TGI (SNB-75 CNS): 1190 nM
GI50 (T-47D breast): 143 nM
TGI (T-47D breast): 10400 nM
GI50 (COLO 205 colon): 158 nM
TGI (COLO 205 colon): 2280 nM
GI50 (ACHN renal): 363 nM
TGI (ACHN renal): 12800 nM
GI50 (786-0 renal): 188 nM
TGI (786-0 renal): 10000 nM
GI50 (A498 renal): 269 nM
TGI (A498 renal): 2560 nM
GI50 (RPMI-8226 leukemia): 109 nM
TGI (RPMI-8226 leukemia): 13700 nM
GI50 (SR leukemia): 79.3 nM
TGI (SR leukemia): 7690 nM
GI50 (SK-MEL-5 melanoma): 154 nM
TGI (SK-MEL-5 melanoma): 958 nM
GI50 (NCI/ADR-RES ovarian): 1110 nM
TGI (NCI/ADR-RES ovarian): 3850 nM
GI50 (SF-295 CNS): 330 nM
TGI (SF-295 CNS): 12700 nM
GI50 (HCC-2998 colon): 145 nM
TGI (HCC-2998 colon): 735 nM
GI50 (UACC-62 melanoma): 49.1 nM
TGI (UACC-62 melanoma): 1170 nM
GI50 (K-562 leukemia): 134 nM
TGI (K-562 leukemia): 7900 nM
GI50 (OVCAR-8 ovarian): 424 nM
TGI (OVCAR-8 ovarian): 15700 nM
GI50 (IGROV1 ovarian): 254 nM
TGI (IGROV1 ovarian): 2930 nM
GI50 (SNB-19 CNS): 277 nM
TGI (SNB-19 CNS): 9060 nM
GI50 (NCI-H460 lung): 441 nM
TGI (NCI-H460 lung): 7570 nM
GI50 (A549 NSCLC): 381 nM
TGI (A549 NSCLC): 11100 nM
GI50 (CAKI-1 renal): 61.9 nM
TGI (CAKI-1 renal): 6290 nM
GI50 (PC-3 prostate): 380 nM
TGI (PC-3 prostate): 18800 nM
GI50 (UACC-257 melanoma): 199 nM
TGI (UACC-257 melanoma): 6890 nM
GI50 (RXF 393 renal): 763 nM
TGI (RXF 393 renal): 3890 nM
GI50 (OVCAR-3 ovarian): 221 nM
TGI (OVCAR-3 ovarian): 3580 nM
GI50 (MCF7 breast): 45.2 nM
TGI (MCF7 breast): 6010 nM
GI50 (LOX IMVI melanoma): 111 nM
TGI (LOX IMVI melanoma): 542 nM
GI50 (OVCAR-5 ovarian): 1330 nM
TGI (OVCAR-5 ovarian): 15000 nM
GI50 (MDA-MB-231 breast): 117 nM
TGI (MDA-MB-231 breast): 1900 nM
GI50 (SF-268 CNS): 1300 nM
TGI (SF-268 CNS): 13400 nM
GI50 (OVCAR-4 ovarian): 232 nM
TGI (OVCAR-4 ovarian): 14700 nM
GI50 (HCT-15 colon): 173 nM
TGI (HCT-15 colon): 1800 nM
GI50 (HS 578T breast): 105 nM
TGI (HS 578T breast): 2860 nM
GI50 (MOLT-4 leukemia): 768 nM
TGI (MOLT-4 leukemia): 5320 nM
GI50 (UO-31 renal): 132 nM
TGI (UO-31 renal): 6080 nM
GI50 (DU-145 prostate): 1720 nM
TGI (DU-145 prostate): 11500 nM
GI50 (HT29 colon): 142 nM
TGI (HT29 colon): 7450 nM
GI50 (BT-549 breast): 370 nM
TGI (BT-549 breast): 4050 nM
GI50 (CCRF-CEM leukemia): 4380 nM
TGI (CCRF-CEM leukemia): 56000 nM
GI50 (NCI-H23 lung): 278 nM
TGI (NCI-H23 lung): 2370 nM
GI50 (SN12C renal): 439 nM
TGI (SN12C renal): 10900 nM
GI50 (NCI-H522 lung): 51.5 nM
TGI (NCI-H522 lung): 752 nM
GI50 (SK-MEL-28 melanoma): 622 nM
TGI (SK-MEL-28 melanoma): 15800 nM
